# Laboratory results taken from a melting point compilation (Tetko et al.; mined from patent text by program, amines drawn as free bases though some values may be those of a salt).
row,melting point [°C],SMILES
1,249 to 250,CC(C)(C)OC(=O)N1CCC(N2Cc3ccccc3NC2=NC#N)CC1
2,57 to 60,CCCCCCCCCCCCCCCCCC(=O)c1ccc(C2=NC(C)(C)CO2)c(Cl)c1
3,112 to 113,CSc1ccc([N+](=O)[O-])c(C#N)c1
4,75 to 77,Cn1nnnc1CN1CCC[C@@H](OCc2cc(C(F)(F)F)cc(C(F)(F)F)c2)[C@H]1c1ccccc1 (relative stereo)
5,220 to 221,O=C(c1ccc(-c2cc(Cl)ccc2O)cc1C(F)(F)F)N1CCCC1
6,90,CNC(=O)[C@@H]1CCCN1S(=O)(=O)c1ccc(Cl)c(COc2cccc3c(-n4ccnc4)cc(C)nc23)c1Cl
7,148 to 150,CCOC(=O)C(O)=Cc1ccc(S(=O)c2ccc(F)cc2)cn1 (centres undefined)
8,99 to 101,CCN(C(=O)C1(C(=O)O)CC1)c1ccc(Cl)cc1
9,155,CC(=O)OC1CSC(Oc2ccc(-c3cccnc3)nc2Cl)C(OC(C)=O)C1OC(C)=O (centres undefined)
10,132 to 134,CC1=C(c2cccc(C(F)(F)F)c2)n2ncc(C#N)c2N(C(=O)CN2CCN(c3ccccn3)CC2)C1
11,196 to 197,CN(Cc1cc(C(F)(F)F)cc(C(F)(F)F)c1)C(=O)c1c(-c2ccc(F)cc2)c2ccsc2c(=O)n1C
12,116 to 117,C=Cc1cc(C2=NCCO2)ccc1OCCCCCc1cc(C)no1
13,258 to 260,C1=CCC23C=CC=CN2c2nccn2C3=C1 (centres undefined)
14,222 to 224,CCOC(=O)C1(C)C(=O)Nc2cc(NC(=O)c3ccncc3)ccc21 (centres undefined)
15,291 to 297,COc1ccc2c(O)c(CO)cnc2c1
16,123 to 125,CCN(CC)CCn1c2ccccc2c(=NN=C2SCCN2C)c2ccccc21
17,258 to 259,O=C(O)CCc1ccnc(-c2nc(=O)c3ccc(Br)cc3s2)c1
18,134 to 142,Cc1ccccc1C(=O)Nc1ccc(C(=O)N2CCCC(=O)c3cc(Cl)ccc32)c(C)c1
19,170 to 172,Cc1cccc(NC(=O)C(=O)OCC#CI)c1
20,194 to 196,COc1ccc(N2CCOCC2)c2sc(-c3nc4c([nH]3)CCN(C(=O)c3ccccc3C)CC4)nc12
21,144 to 146,NC1CN(C(=O)Nc2ccc(C(F)(F)F)cc2)N=C1c1ccc(Cl)cc1 (centres undefined)

row,melting point [°C],SMILES
1,124 to 125,CC(C)(C)OC(=O)N[C@H]1CCN(C(=O)OCc2ccccc2)C1
2,192,COc1ccc(C(=O)N2CC(O)CC2C(=O)O)cc1 (centres undefined)
3,224 to 225,Cc1nn(-c2ccc(F)cc2)cc1C(=O)Nc1ccc(N2CCC(O)CC2)c(C#N)c1
4,119 to 122,COc1ccc([C@H]2CCCC[C@H]2NC(=O)c2ccc(C(=O)c3ccccc3)cc2)cc1OC
5,97 to 98,CC(C)(C)[Si](Oc1ccc(OCC2CO2)cc1)(c1ccccc1)c1ccccc1 (centres undefined)
6,71 to 73,C=Cc1ccc(CN2CCN(Cc3ccc(C=C)cc3)CCN(Cc3ccc(C=C)cc3)CC2)cc1
7,84 to 88,CCCCc1ncc(CC(=O)NCC(=O)O)n1Cc1ccccc1Cl
8,326 to 328,CC(=O)Nc1cccc(-c2ccc(C#N)c(=O)[nH]2)c1
9,186 to 187,CC1(C)CC(OC(=O)Nc2ccccc2)CC(C)(C)N1CC(O)c1ccccc1 (centres undefined)
10,157 to 158,COc1ccc(-c2c(Cl)c(CN3CCCC3)nc3sc4c(c23)CCN(Cc2ccccc2)C4)cc1OC
11,240,CCCC(=O)Nc1n[nH]c2cc(-c3ccc4c(c3)OCO4)ccc12
12,136,CC1C(=O)N(Nc2ccccc2)C1C#C[Si](C)(C)C (centres undefined)
13,208 to 210,C#CC12CC3CC(C1)CC(C14CC5CC(CC(C#C)(C5)C1)C4)(C3)C2
14,192 to 195,CCNc1nc2ccccc2n(-c2ccc(Cl)cc2)c1=O
15,211 to 212,Clc1ccc(-c2[nH]nc(C3=CCN4CCC[C@H]4C3)c2-c2ccncc2)cc1
16,148 to 149,CC(C)C1(COC(C)(C)C)Cc2cc(OCC(=O)O)c(Cl)c(Cl)c2C1=O (centres undefined)
17,140 to 142,C#CCOc1ccc2c(C)cc(=O)oc2c1C(=O)C=Cc1ccccc1
18,114 to 115,Cc1c(N)c(C)c(Cc2ccc(C(C)C)cc2)c2c1CCO2
19,134 to 135,CC(C)CC(C(=O)OCc1ccccc1)N1C(=O)C2(CCCN2C(=O)OC(C)(C)C)CC1O (mixture of isomers)
20,125 to 126,CCOc1cc(C(=O)N2CCN(C(=O)C3=Cc4cc(OC)c(OC)cc4CCC3)CC2)cc(OCC)c1OCC

# The remaining lines, values behind:
row,SMILES,melting point [°C]
1,CCc1nnc2c(N(C)C)nc3ccccc3n12,155 to 158
2,N#CCCNC(=O)c1cccc(-c2ccnc3cc(Cc4cccc(C(F)(F)F)c4)nn23)c1,153 to 154
3,CCCCCCCCCCCCCCCCCCNC(=O)OCC(CNS(=O)(=O)CCCCl)NC(C)=O (centres undefined),110 to 112
4,ClCc1ccnc(OCc2cn3c(Cl)cccc3n2)c1,118 to 119
5,CC(C)(C)OC(=O)C=Cc1ccc(-c2ccc3ncnc(Nc4ccc(OCc5cccc(F)c5)c(Cl)c4)c3c2)cc1,212
6,CN(C)C(=N[N+](=O)[O-])N(Cc1cnc(Cl)s1)S(C)(=O)=O,82 to 86
7,CCOc1c(Nc2cccnc2)c(=O)c1=O,140 to 145
8,COc1ccccc1/C=C/C(=O)Nc1cccc(NC(=N)c2ccccc2)c1,219 to 221
9,COc1cc(C=O)cc(OC)c1N,94 to 96
10,CCOC(=O)c1cnn(C)c1NCc1ccc(-c2ccccc2C#N)cc1,107 to 108
11,CC(=O)Nc1ccc2nc3ccccc3c(-c3cc(C)ccc3C)c2c1,236 to 238
12,BrC(Br)Cc1ccc(OCc2ccccc2)cc1,97 to 98
13,CNc1c([N+](=O)[O-])ccc(Sc2ccccc2)c1Cl,79
14,O=C(O)c1cc(=O)c(Cl)c(-c2ccccc2)o1,216 to 218
15,Cc1cccc(C(=O)NO)c1N(C)S(=O)(=O)c1ccc(OCCCNC(=O)c2cc3ccccc3[nH]2)cc1,144 to 146
16,Nc1nc2ccc(S(=O)(=O)n3c(CCC(=O)O)cc4cc(C(F)(F)F)ccc43)cc2s1,> 250
17,CCOC(=O)c1cc2c3ccccc3n(CCCc3ccccc3)c2cn1,140 to 142
18,COc1ccccc1-n1c(=O)[nH]c2c(C(N)=O)nc(-c3ccc4nc(C)[nH]c4c3)nc21,270
19,CC(C)(C)c1ccc(C(=O)Nc2cn3cc(-c4cn[nH]c4)ccc3n2)cn1,238 to 240
20,COC(=O)c1cccc(-c2nc(-c3ccc(C(F)(F)F)cc3)cs2)c1,142 to 143
21,COC(=O)Nc1cn2cc(Sc3ccccn3)ccc2n1,230 to 236
22,CNC(=O)c1cnn(C)c1C(=O)Nc1ccn2nc(-c3ccccc3)nc2c1,> 250
23,Oc1cc2c(-c3ccccc3)csc2c(Cl)c1Cl,157 to 159
24,CC(=O)OCc1cc2ccccc2[nH]1,112
25,CC(C)(C)c1cc(Cl)nc(N)n1,87.7 to 88.9
26,CCOC(=O)COc1ccc(C(=O)[C@@H](NC(=O)c2ccc(C(=N)NC(=O)OC(C)(C)C)cc2)[C@@H](C)OC(C)(C)C)cc1,95 to 97
27,CCCCCNS(=O)(=O)NC(=O)/C=C/c1c(C)nn(C)c1-n1ccc2cc(Cl)ccc21,184
28,CSc1c(C)c(-c2ccc(Cl)cc2Cl)nn1C,65 to 66
